Assays:
Format in all cases: cell-based
Melanocortin receptor 4 = Melanocortin receptor 4 (Homo sapiens, UniProt P32245); experiment: Displacement of [125I]NDP-alpha-MSH from cloned human MC4R expressed in HEK293 cells
Melanocortin receptor 5 = Melanocortin receptor 5 (Homo sapiens, UniProt P33032); experiment: Displacement of [125I]NDP-alpha-MSH from cloned human MC5R expressed in HEK293 cell
[1] = biological target: Melanocyte-stimulating hormone receptor (Homo sapiens, UniProt Q01726); experiment: Displacement of [125I]NDP-alpha-MSH from cloned human MC1R expressed in HEK293 cell
Melanocortin receptor 3 = Melanocortin receptor 3 (Homo sapiens, UniProt P41968); experiment: Displacement of [125I]NDP-alpha-MSH from cloned human MC3R expressed in HEK293 cell
Melanocortin receptor 3, sequence (P41968 whole entry): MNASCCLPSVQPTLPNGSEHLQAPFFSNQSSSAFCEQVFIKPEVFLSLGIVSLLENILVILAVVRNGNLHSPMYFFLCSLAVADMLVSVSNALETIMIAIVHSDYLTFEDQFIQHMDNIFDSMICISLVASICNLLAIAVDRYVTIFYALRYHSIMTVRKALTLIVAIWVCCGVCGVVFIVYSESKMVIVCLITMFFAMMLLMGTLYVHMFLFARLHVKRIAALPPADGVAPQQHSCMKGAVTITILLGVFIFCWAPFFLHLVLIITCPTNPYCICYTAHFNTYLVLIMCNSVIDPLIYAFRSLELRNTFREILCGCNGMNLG

Melanocortin receptor 5, sequence (P33032 whole entry): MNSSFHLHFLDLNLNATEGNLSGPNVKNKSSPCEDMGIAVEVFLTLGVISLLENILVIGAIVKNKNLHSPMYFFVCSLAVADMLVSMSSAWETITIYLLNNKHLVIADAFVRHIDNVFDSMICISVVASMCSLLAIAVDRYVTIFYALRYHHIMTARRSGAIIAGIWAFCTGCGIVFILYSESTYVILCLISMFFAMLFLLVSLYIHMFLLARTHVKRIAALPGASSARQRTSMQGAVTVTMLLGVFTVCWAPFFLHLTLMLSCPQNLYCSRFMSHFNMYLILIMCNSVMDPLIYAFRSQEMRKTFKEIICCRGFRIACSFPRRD
Melanocyte-stimulating hormone receptor, sequence (Q01726 whole entry): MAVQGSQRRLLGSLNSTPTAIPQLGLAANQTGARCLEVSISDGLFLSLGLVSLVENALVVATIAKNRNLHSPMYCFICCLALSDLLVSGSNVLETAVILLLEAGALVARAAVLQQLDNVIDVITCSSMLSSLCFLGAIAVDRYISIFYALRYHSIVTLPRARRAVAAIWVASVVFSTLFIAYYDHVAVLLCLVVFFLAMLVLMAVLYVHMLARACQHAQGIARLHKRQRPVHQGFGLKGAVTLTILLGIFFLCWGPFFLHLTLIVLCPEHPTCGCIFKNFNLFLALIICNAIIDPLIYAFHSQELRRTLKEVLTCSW
Melanocortin receptor 4, sequence (P32245 whole entry): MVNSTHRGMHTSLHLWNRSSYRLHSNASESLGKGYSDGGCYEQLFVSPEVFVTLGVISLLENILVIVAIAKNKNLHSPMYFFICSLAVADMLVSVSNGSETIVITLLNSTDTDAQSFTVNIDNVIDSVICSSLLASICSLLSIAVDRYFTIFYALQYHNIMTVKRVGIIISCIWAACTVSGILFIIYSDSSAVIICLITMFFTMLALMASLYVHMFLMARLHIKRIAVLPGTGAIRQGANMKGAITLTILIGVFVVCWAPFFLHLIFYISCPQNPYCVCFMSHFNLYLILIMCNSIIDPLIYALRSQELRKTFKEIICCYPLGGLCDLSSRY

CCN(CC)CC(c1ccccc1F)N1CCN(C(=O)[C@@H](Cc2ccc(Cl)cc2)NC(=O)CC2NCc3ccccc32)CC1 (some centres undefined)
Ki (Melanocortin receptor 4): 7.3 nM
Ki (Melanocortin receptor 5): 1200 nM
Ki [1]: 6000 nM
Ki (Melanocortin receptor 3): 3400 nM

CCN(CC)CC(c1ccccc1Cl)N1CCN(C(=O)[C@@H](Cc2ccc(Cl)cc2)NC(=O)CC2NCCc3ccccc32)CC1 (stereo in doubt; 43)
Ki (Melanocortin receptor 4): 6.4 nM

CCN(CC)CC(c1ccccc1Cl)N1CCN(C(=O)[C@@H](Cc2ccc(Cl)cc2)NC(=O)CC2NCCc3ccccc32)CC1 (stereo in doubt; 42)
Ki (Melanocortin receptor 4): 30.2 nM

CCN(CC)CC(c1ccccc1F)N1CCN(C(=O)[C@@H](Cc2ccc(Cl)cc2)NC(=O)CC2(C)NCc3ccccc32)CC1 (some centres undefined)
Ki (Melanocortin receptor 4): 73.7 nM
Ki (Melanocortin receptor 5): 1400 nM
Ki [1]: 20000 nM
Ki (Melanocortin receptor 3): 16000 nM

CCN(CC)CC(c1ccccc1F)N1CCN(C(=O)[C@@H](Cc2ccc(Cl)cc2)NC(=O)[C@H]2Cc3ccccc3CN2)CC1 (some centres undefined)
Ki (Melanocortin receptor 4): 40.6 nM
Ki (Melanocortin receptor 5): 950 nM
Ki [1]: 5800 nM
Ki (Melanocortin receptor 3): 7000 nM

CCN(CC)CC(c1ccccc1Cl)N1CCN(C(=O)[C@@H](Cc2ccc(Cl)cc2)NC(=O)CC2NCc3ccccc32)CC1 (stereo in doubt; 40a)
Ki (Melanocortin receptor 4): 178 nM

CCN(CC)CC(c1ccccc1Cl)N1CCN(C(=O)[C@@H](Cc2ccc(Cl)cc2)NC(=O)CC2NCc3ccccc32)CC1 (stereo in doubt; 41a)
Ki (Melanocortin receptor 4): 107 nM

CCN(CC)CC(c1ccccc1F)N1CCN(C(=O)[C@@H](Cc2ccc(Cl)cc2)NC(=O)CC2c3ccccc3CN2C)CC1 (some centres undefined)
Ki (Melanocortin receptor 4): 17.3 nM
Ki (Melanocortin receptor 5): 2000 nM
Ki [1]: 8600 nM
Ki (Melanocortin receptor 3): 4600 nM

CCN(CC)CC(c1ccccc1F)N1CCN(C(=O)[C@@H](Cc2ccc(Cl)cc2)NC(=O)C2Cc3ccccc3C(C)(C)N2)CC1 (some centres undefined)
Ki (Melanocortin receptor 4): 5.8 nM
Ki (Melanocortin receptor 5): 420 nM
Ki [1]: 7000 nM
Ki (Melanocortin receptor 3): 1900 nM

CCN(CC)CC(c1ccccc1Cl)N1CCN(C(=O)[C@@H](Cc2ccc(Cl)cc2)NC(=O)CC2NCc3ccccc32)CC1 (stereo in doubt; 41b)
Ki (Melanocortin receptor 4): 5.3 nM

CCN(CC)CC(c1ccccc1Cl)N1CCN(C(=O)[C@@H](Cc2ccc(Cl)cc2)NC(=O)CC2NCc3ccccc32)CC1 (stereo in doubt; 40b)
Ki (Melanocortin receptor 4): 18.1 nM

CCN(CC)CC(c1ccccc1F)N1CCN(C(=O)[C@@H](Cc2ccc(Cl)cc2)NC(=O)c2cc3ccccc3cn2)CC1 (some centres undefined)
Ki (Melanocortin receptor 4): 95.6 nM
Ki (Melanocortin receptor 5): 920 nM
Ki [1]: 7000 nM
Ki (Melanocortin receptor 3): 1400 nM

CCN(CC)CC(c1ccccc1F)N1CCN(C(=O)[C@@H](Cc2ccc(Cl)cc2)NC(=O)CC2NCCc3ccccc32)CC1 (some centres undefined)
Ki (Melanocortin receptor 4): 10.4 nM
Ki (Melanocortin receptor 5): 910 nM
Ki [1]: 3000 nM
Ki (Melanocortin receptor 3): 4200 nM
